Assay results as given in article PMC4849104, “Selected novel 5'-amino-2'-hydroxy-1, 3-diaryl-2-propen-1-ones arrest cell cycle of HCT-116 in G0/G1 phase” (EXCLI Journal, 2016).
“And” between values parts separate entries of the source, which are not always exact repeats. Identical values can stand only once. One block for each compound: values may come before it.

Experiments:
[1] = system: normal kidney epithelial cells (Vero); experiment: Cytotoxicity by MTT assay on Vero; assay type: cell-based; conditions: 48 h incubation
Experimental: (§1) Cytotoxicity of the synthesized compounds was evaluated in cancer cells namely human colon cancer (HCT-116) cells and human breast cancer (MCF-7) cells and normal kidney epithelial cells (Vero). These cells were originally procured from National Cancer Center for Cell Science, Pune, India and cultured in our lab using Dulbecco's modified Eagles medium (DMEM) containing 10 % fetal bovine serum (FBS) at 37 °C in an atmosphere containing 5 % CO2. All other chemicals used in this study were purchased from Sigma-Aldrich, USA.
(§2) Cell suspension containing 1 x 10^4 cells in 0.1 mL was seeded in a 96 well plate for 24 h. Test compounds were serially diluted with the medium to get a stock solution of 400 µM, 200 µM, 100 µM, 50 µM. After 24 h of incubation, 100 µL of test solution from respective stocks was added in triplicate and incubated for 48 h. After the treatment, drug-containing media was removed and 20 µL of MTT reagent (5 mg/mL in PBS) was added to each well. After 4 h of incubation at 37 °C, the MTT reagent was removed and 100 µL of 100 % DMSO was added to each well to solubilize formazan crystals. The optical density was measured using an ELISA plate reader at 540 nm and percentage cytotoxicity was calculated. (Kumar et al., 2012[15]; Zi and Simoneau, 2005[31]).

[2] = system: human colon cancer (HCT-116) cells; experiment: Cytotoxicity by MTT assay on HCT-116; assay type: cell-based; conditions: for IC50 (μM) HCT-116 / IC50: MTT assay, 48 h incubation; for cytotoxicity against HCT-116 (in words): MTT, close to 200 µM including SEM
Experimental: as §1, §2

[3] = system: human breast cancer (MCF-7) cells; experiment: Cytotoxicity by MTT assay on MCF-7; assay type: cell-based; conditions: for IC50 / IC50 (μM) MCF-7: MTT assay, 48 h incubation; for cytotoxicity against MCF-7 (in words): MTT, close to 200 µM including SEM
Experimental: as §1, §2

[4] = system: HCT-116 cells; experiment: Acridine orange/ethidium bromide (AO/EB) dual nuclear staining, apoptotic index; assay type: cell-based, human; conditions: HCT-116, AO/EB; for percentage apoptotic nuclei (apoptotic index): mean ± SEM
Experimental: DNA-binding dyes Acridine orange (AO) and Ethidium bromide (EB) (Sigma, USA) were used for the morphological detection of apoptotic cells. 5 x 10^3 cells were seeded per well in 24-well plates with DMEM, containing 10 % FBS. After 24 h, cells were treated with selected concentrations of test compounds and incubated for 24 h. The media was removed and plate was washed with phosphate buffer saline (PBS, pH 7.4). Cells were fixed in ice-cold methanol for 20 min, washed with PBS again and stained with acridine orange and ethidium bromide stain (20/30 µg/ml). After incubation for 20 min at 37 °C, and washing with PBS thrice, the plate was observed under a fluorescent microscope for morphological changes in nucleus such as condensed chromatin and fragmented nuclei. The apoptotic index (AI) was calculated as % of apoptotic cells from randomly counted 100 cells in each treatment group (Reddy et al., 2015[25]).

[5] = system: HCT-116 cells; experiment: Cell cycle analysis by flow cytometry with propidium iodide; assay type: cell-based, human; conditions: for phase of cell cycle arrest: HCT-116, AC-10 100 µM, AC-13 and AC-14 50 µM, doxorubicin 1 µM
Experimental: Flow cytometric analysis technique evaluates the effect of test compounds on cell cycle progression and check-points. Cells (1 x 10^6) were seeded in 25 cm^2 flasks and, after overnight adherence, incubated with test compounds. Then cells were detached by trypsinization and mixed with floating cells, centrifuged and washed with PBS. The cell pellets were fixed in 70 % ice-cold methanol and stored at -20 °C for 24 h. After that cell pellets were washed with PBS and isotonic PI solution [25 µM propidium iodide, 0.03 % NP-40 and 40 µg /ml RNase A] was added. The stained cells were analyzed using Accuri C6 flow cytometer (BD Biosciences, San Jose, CA, USA) with excitation at 488 nm and emission at 575/40 nm (Reddy et al., 2015[25]).

melting point: 102 to 104 °C
Compound: COc1ccc(/C=C/C(=O)c2cc(N)ccc2O)cc1 [AC-11, (E)-1-(5-Amino-2-Hydroxyphenyl)-3-(4-methoxyphenyl)prop-2-en-1-one]
IC50 ([1]; Chlorocebus sabaeus, Vero): > 200 µM
IC50 (μM) HCT-116 [2]: No activity
IC50 ([3]; Homo sapiens, MCF7): 1030 ± 60.6 µM

melting point: 136 to 138 °C
Compound: COc1cc(/C=C/C(=O)c2cc(N)ccc2O)cc(OC)c1OC [AC-14, (E)-1-(5-Amino-2-Hydroxyphenyl)-3-(3,4,5-trimethoxyphenyl)prop-2-en-1-one]
IC50 ([1]; Chlorocebus sabaeus, Vero): > 200 µM
percentage apoptotic nuclei (apoptotic index) ([4]; 50 µM): 24.3 ± 3.53%
IC50 ([2]; Homo sapiens, HCT-116): 62 ± 2.3 µM
cytotoxicity against HCT-116 (in words) [2]: high cytotoxicity
IC50 ([3]; Homo sapiens, MCF7): 197 ± 7.9 µM
cytotoxicity against MCF-7 (in words) [3]: high cytotoxicity
% cells in G0/G1 phase (M1) ([5]; HCT-116, 50 µM, 48 h treatment): 70.8%
phase of cell cycle arrest [5]: G0/G1 phase

melting point: 136 °C
Compound: COc1cc(/C=C/C(=O)c2cc(N)ccc2O)ccc1O [AC-7, (E)-1-(5-Amino-2-Hydroxyphenyl)-3-(4-hydroxy-3-methoxyphenyl)prop-2-en-1-one]
IC50 ([1]; Chlorocebus sabaeus, Vero): > 200 µM
IC50 ([2]; Homo sapiens, HCT-116): 393 ± 77.9 µM
IC50 ([3]; Homo sapiens, MCF7): 248 ± 4.31 µM

melting point: 90 °C
Compound: COc1ccc(/C=C/C(=O)c2cc(N)ccc2O)cc1OC [AC-9, (E)-1-(5-Amino-2-Hydroxyphenyl)-3-(3,4-dimethoxyphenyl)prop-2-en-1-one]
IC50 ([1]; Chlorocebus sabaeus, Vero): > 200 µM
IC50 ([2]; Homo sapiens, HCT-116): 186 ± 7.3 µM
cytotoxicity against HCT-116 (in words) [2]: high cytotoxicity
IC50 ([3]; Homo sapiens, MCF7): 190 ± 10.5 µM
cytotoxicity against MCF-7 (in words) [3]: high cytotoxicity

melting point: 110 °C
Compound: COc1cccc(/C=C/C(=O)c2cc(N)ccc2O)c1 [AC-6, (E)-1-(5-Amino-2-Hydroxyphenyl)-3-(3-methoxyphenyl)prop-2-en-1-one]
IC50 ([1]; Chlorocebus sabaeus, Vero): > 200 µM
IC50 (μM) HCT-116 [2]: No activity
IC50 (μM) MCF-7 [3]: No activity

melting point: 136 °C
Compound: COc1ccc(/C=C/C(=O)c2cc(N)ccc2O)cc1O [AC-8, (E)-1-(5-Amino-2-Hydroxyphenyl)-3-(3-hydroxy-4-methoxyphenyl)prop-2-en-1-one]
IC50 ([1]; Chlorocebus sabaeus, Vero): > 200 µM
IC50 ([2]; Homo sapiens, HCT-116): 123 ± 7.2 µM
cytotoxicity against HCT-116 (in words) [2]: high cytotoxicity
IC50 ([3]; Homo sapiens, MCF7): 171 ± 12.9 µM
cytotoxicity against MCF-7 (in words) [3]: high cytotoxicity

Further lines, the compound ahead of its results:

Compound: Nc1ccc(O)c(C(=O)/C=C/c2ccc(F)cc2)c1 [AC-3, (E)-1-(5-Amino-2-Hydroxyphenyl)-3-(4-fluorophenyl)prop-2-en-1-one]
melting point: 154 °C
IC50 ([1]; Chlorocebus sabaeus, Vero): > 200 µM
IC50 ([2]; Homo sapiens, HCT-116): 174 ± 3.53 µM
cytotoxicity against HCT-116 (in words) [2]: high cytotoxicity
IC50 ([3]; Homo sapiens, MCF7): 542 ± 38.5 µM

Compound: (E)-1-(5-Amino-2-Hydroxyphenyl)-3-(3,4-dichlorophenyl)prop-2-en-1-one [AC-12]
IC50 [1]: > 200 µM
IC50 [2]: 169 ± 66.7 µM
IC50 [3]: 236 ± 9.8 µM

Compound: CCOc1ccc(/C=C/C(=O)c2cc(N)ccc2O)cc1 [AC-5, (E)-1-(5-Amino-2-Hydroxyphenyl)-3-(4-ethoxyphenyl)prop-2-en-1-one]
melting point: 135 °C
IC50 ([1]; Chlorocebus sabaeus, Vero): > 200 µM
IC50 (μM) HCT-116 [2]: No activity
IC50 (μM) MCF-7 [3]: No activity

Compound: COc1cccc2c1C(=O)c1c(O)c3c(c(O)c1C2=O)C[C@@](O)(C(=O)CO)C[C@@H]3O[C@H]1C[C@H](N)[C@H](O)[C@H](C)O1 [doxorubicin, reference compound]
more accumulation of cells in G2/M phase as compared to normal control ([5]; HCT-116, 1 µM (standard), normal control 23.0 %): 7.4%
phase of cell cycle arrest [5]: G2/M phase

Compound: Nc1ccc(O)c(C(=O)/C=C/c2ccc3c(c2)OCO3)c1 [AC-13, (E)-1-(5-Amino-2-Hydroxyphenyl)-3-(3,4-methylenedioxyphenyl)prop-2-en-1-one]
melting point: 128 °C
IC50 ([1]; Chlorocebus sabaeus, Vero): > 200 µM
increase in apoptotic nuclei compared to medium control ([4]; 50 µM): about five
percentage apoptotic nuclei (apoptotic index) ([4]; 50 µM): 31% and 31 ± 4.16%
IC50 ([2]; Homo sapiens, HCT-116): 42.1 ± 4 µM
cytotoxicity against HCT-116 (in words) [2]: high cytotoxicity
IC50 ([3]; Homo sapiens, MCF7): 130 ± 3.8 µM
cytotoxicity against MCF-7 (in words) [3]: high cytotoxicity
% cells in G0/G1 phase (M1) ([5]; HCT-116, 50 µM, 48 h treatment): 66.5%
% cells in G2/M phase (M3) ([5]; HCT-116, 50 µM, 48 h treatment): 25.1%
phase of cell cycle arrest [5]: G0/G1 and G2/M phase

Compound: Nc1ccc(O)c(C(=O)/C=C/c2ccc(Cl)cc2)c1 [AC-2, (E)-1-(5-Amino-2-Hydroxyphenyl)-3-(4-chlorophenyl)prop-2-en-1-one]
melting point: 138 °C
IC50 ([1]; Chlorocebus sabaeus, Vero): > 200 µM
IC50 ([2]; Homo sapiens, HCT-116): 205 ± 3.15 µM
cytotoxicity against HCT-116 (in words) [2]: high cytotoxicity
IC50 (μM) MCF-7 [3]: No activity

Compound: Nc1ccc(O)c(C(=O)/C=C/c2ccc(OCc3ccccc3)cc2)c1 [AC-15, (E)-1-(5-Amino-2-Hydroxyphenyl)-3-(4-benzyloxyphenyl)prop-2-en-1-one]
melting point: 136 to 138 °C
IC50 ([1]; Chlorocebus sabaeus, Vero): > 200 µM
IC50 ([2]; Homo sapiens, HCT-116): 211 ± 26 µM
IC50 (μM) MCF-7 [3]: No activity

Compound: Nc1ccc(O)c(C(=O)/C=C/c2cccc([N+](=O)[O-])c2)c1 [AC-4, (E)-1-(5-Amino-2-Hydroxyphenyl)-3-(3-nitrophenyl)prop-2-en-1-one]
melting point: 112 °C
IC50 ([1]; Chlorocebus sabaeus, Vero): > 200 µM
IC50 ([2]; Homo sapiens, HCT-116): 309 ± 74.1 µM
IC50 (μM) MCF-7 [3]: No activity

Compound: Nc1ccc(O)c(C(=O)/C=C/c2ccccc2)c1 [AC-1, (E)-1-(5-Amino-2-Hydroxyphenyl)-3-phenylprop-2-en-1-one]
melting point: 126 °C
IC50 ([1]; Chlorocebus sabaeus, Vero): > 200 µM
IC50 ([2]; Homo sapiens, HCT-116): 299 ± 49.8 µM
IC50 ([3]; Homo sapiens, MCF7): 1960 ± 776 µM

Compound: Nc1ccc(O)c(C(=O)/C=C/c2ccccc2O)c1 [AC-10, (E)-1-(5-Amino-2-Hydroxyphenyl)-3-(2-hydroxyphenyl)prop-2-en-1-one]
melting point: 130 to 132 °C
IC50 ([1]; Chlorocebus sabaeus, Vero): > 200 µM
percentage apoptotic nuclei (apoptotic index) ([4]; 100 µM): 27 ± 3.21%
IC50 ([2]; Homo sapiens, HCT-116): 95.4 ± 1.7 µM
cytotoxicity against HCT-116 (in words) [2]: high cytotoxicity
IC50 ([3]; Homo sapiens, MCF7): 74.7 ± 3.5 µM
cytotoxicity against MCF-7 (in words) [3]: high cytotoxicity
% cells in G0/G1 phase (M1) ([5]; HCT-116, 100 µM, 48 h treatment): 70.5%
phase of cell cycle arrest [5]: G0/G1 phase
